Laboratory results published in patent US4144236A (priority 1973, dated 1979).
Read-outs that look alike come from different tables or passages of the source.

Columns and labels:
[1] = Blood pressure changes in anesthetized cats; conditions: for Change in blood pressure: drop from control
Experimental: Blood pressure changes were studied in cats anesthetized with pentabarbitone sodium (35 mg/kg, i.p.). The substances were injected into the right femoral vein, responses to drugs were measured by means of a mercury manometer and recorded on a smoke cylinder.

[2] = tested on: citric acid aerosol induced cough; test: animal or person; format: in vivo, Wistar rats; conditions: for ED50: Rattus norvegicus, read-out: AtD50
Experimental: The anti-tussive activity in rats was tested by the method of Gosswald. Wistar rats weighing 130 to 180 g were placed in a plexi box (23 × 22 × 11 cm) and cough responses were elicited by citric acid aerosol (10%). The latency period of cough was measured before and after drug administration. The control latency was determined 18 hours before the drug administration. Animals with less than 60 second control latency were used for the experiments. […] Each animal was exposed to citric acid aerosol for a period of 3 minutes 30 seconds and 60 minutes after drug administration. […] Ten animals were used at each dose level. The anti-tussive dose (AtD50) was calculated according to Litchfield and Wilcoxon. The drugs were administered by subcutaneous and oral routes.

[3] = tested on: electrical stimulation induced coughing; test: Anti-tussive activity: electrical stimulation (superior laryngeal nerve) induced coughing in cats (method of Domenjoz); format: in vivo; conditions: for ED100 / ED50: Felis catus; for ED100: read-out: AtD100; for ED50: read-out: AtD50
Experimental: Anti-tussive activity in cats was determined by the method of Domenjoz. Cats weighing 2.5 to 3.5 kg were anesthetized with an i.p. dose of 30 mg per kg of sodium pentobarbitone. […] The cough responses were measured by means of a Marey-tambour connected to a face mask and recorded on a smoked paper. Drugs were given intravenously in increasing doses. The effect of each dose was measured on at least five cats. The effects of the drug was calculated from the changes of amplitude of cough curves. If no coughing was produced by two successive stimulations, the dose was taken as the effective anti-tussive dose (AtD100). The anti-tussive dose (AtD50) which reduces the control response by 50% was calculated by the method of Litchfield and Wilcoxon.

[4] = From the text: ^++ D'Amour,D.E. and Smith,D.L.: J.Pharm.Expt.Ther. 72. 74 (1941)
[5] = in vivo; conditions: rat, sc
[6] = Analgesic activity, writhing test (Van der Wende and Margolin), s.c., mice; conditions: Mus musculus, sc, read-out: ED50 (Writhing test)
Remark: listed apart in the source
[7] = Physical dependency disposition test (spring-test; jumping after naloxone) for 2 days on mice; conditions: Haloxone 100 mg./kg., 2nd day; for Average jump per mouse: mice
Experimental: ^+ The total dosage was added intraperitoneally in seven, gradually
increasing increments, within 26 hours.

[8] = Analgesic ED50, hot plate test, i.p. (footnote of Table 4); format: in vivo; conditions: for ED50: ip, read-out: ED50 (analgesic)
Experimental: 0.025 mg./kg. i.p., Compound "A": 0.0125 mg./kg. i.p. (measured by the ho

[9] = anesthetized cats, 0.5 mg/kg i.v.
[10] = anesthetized cats, 0.5 mg/kg i.v., means ± S.E.
[11] = sc, rats, s.c., limits in brackets
[12] = iv, cats, i.v., no coughing by two successive stimulations
[13] = cats, i.v., no coughing by two successive stimulations
[14] = rats, s.c., 95% confidence limits on the next line
[15] = rats, s.c., 95% confidence limits given
[16] = total dosage 1 i.p. in 26 hours
[17] = total dosage 10 i.p. in 26 hours
[18] = total dosage 40 i.p. in 26 hours
[19] = total dosage 70 i.p. in 26 hours
[20] = total dosage 100 i.p. in 26 hours
[21] = total dosage 200 i.p. in 26 hours
[22] = total dosage 400 i.p. in 26 hours
[23] = total dosage 1000 i.p. in 26 hours

COc1ccc2c3c1O[C@H]1C(N=[N+]=[N-])CC[C@@]4(O)[C@@H](C2)N(C)CC[C@]314 (some centres unmarked) [14-OH-azidocodeine]
Change in blood pressure [1, 9]: 3 ± 1.3 mm Hg
Blood pressure after drug [1, 10]: 126 ± 6.6 mm Hg
blood pressure effect in words ([1]; anesthetized cats, i.v.): The substances studied, except azidocodeine and 14-hydroxy-azidocodeine, lowered blood pressure
ED50 [2, 11]: 0.82 mg/kg
Ratio codeine/drug (AtD50) ([2]; rats, s.c.): 23.17
ED100 [3, 12]: 1.47 ± 0.07 mg/kg
ED50 ([3]; iv, cats, i.v.): 0.6 mg/kg
Ratio codeine/drug (AtD50) ([3]; cats, i.v.): 2.42
Ratio codeine/drug (AtD100) ([3]; cats, i.v.): 2.91

COc1ccc2c3c1O[C@H]1[C@H](N=[N+]=[N-])CC[C@H]4[C@@H](C2)N(C)CC[C@@]341 [Azidocodeine]
Change in blood pressure [1, 9]: 6 ± 3.8 mm Hg
Blood pressure after drug [1, 10]: 122 ± 5.2 mm Hg
blood pressure effect in words ([1]; anesthetized cats, i.v.): The substances studied, except azidocodeine and 14-hydroxy-azidocodeine, lowered blood pressure
Ratio codeine/drug (AtD50) ([2]; rats, s.c.): 12.10
AtD50 ([2]; rats, s.c., limits in brackets): 1.57 (1.20-2.41) mg/kg s.c.
AtD50 ([3]; cats, i.v.): 0.40 mg/kg i.v.
Ratio codeine/drug (AtD50) ([3]; cats, i.v.): 3.63
Ratio codeine/drug (AtD100) ([3]; cats, i.v.): 4.69
AtD100 [3, 13]: 1.08 ± 0.04 mg/kg i.v.

CN1CC[C@]23c4c5ccc(O)c4O[C@H]2[C@H](N=[N+]=[N-])CC[C@H]3[C@H]1C5 [Azidomorphine, 6-deoxy-6-azido-7,8-dihydroisomorphine]
ED50 (tail flick test) [4, 14]: 0.012 s.c. mg./kg.
LD50 [5]: 13 mg/kg
ED50 [6]: 0.013 mg/kg
ED50 (hot plate) [15]: 0.016 mg./kg.s.c.
Average jump per mouse [7, 16]: 0.0
Average jump per mouse [7, 17]: 1.4
Average jump per mouse [7, 18]: 10.1
Average jump per mouse [7, 19]: 7.4
Jumping mice/examined mice [7, 16]: 0/25
Jumping mice/examined mice [7, 17]: 10/25
Jumping mice/examined mice [7, 18]: 19/25
Jumping mice/examined mice [7, 19]: 12/25
ED50 [8]: 0.025 mg/kg
Change in blood pressure ([1]; anesthetized cats, 0.0035 mg/kg i.v.): 40 ± 3.4 mm Hg
Blood pressure after drug ([1]; anesthetized cats, 0.0035 mg/kg i.v., means ± S.E.): 103 ± 9.3 mm Hg
tolerance to the vasodepressor responses ([1]; in vivo): cross tolerance between morphine, codeine, azidomorphine and 14-hydroxyazidomorphine* was observed
ED50 [2, 11]: 0.034 mg/kg
Ratio codeine/drug (AtD50) ([2]; rats, s.c.): 558.82

COc1ccc2c3c1O[C@H]1[C@@H](O)C=C[C@H]4[C@@H](C2)N(C)CC[C@@]341 [Codeine]
Change in blood pressure ([1]; anesthetized cats, 1.5 mg/kg i.v.): 26 ± 4.9 mm Hg
Blood pressure after drug ([1]; anesthetized cats, 1.5 mg/kg i.v., means ± S.E.): 98 ± 5.3 mm Hg
tolerance to the vasodepressor responses ([1]; anesthetized cats, successive administrations): cross tolerance between morphine, codeine, azidomorphine and 14-hydroxyazidomorphine* was observed
ED50 [2, 11]: 19 mg/kg
ED50 ([2]; rats, oral, limits in brackets): 100 mg/kg
ED100 [3, 12]: 5.07 ± 1.87 mg/kg
ED50 ([3]; iv, cats, i.v.): 1.45 mg/kg

CN1CC[C@]23c4c5ccc(O)c4O[C@H]2[C@H](N=[N+]=[N-])CC[C@@]3(O)[C@H]1C5 [Compound "A", 6-deoxy-6-azido-14-hydroxy-7,8-dihydroisomorphine]
ED50 (tail flick test) [4, 14]: 0.029 s.c. mg./kg.
LD50 [5]: 200 mg/kg
ED50 [6]: 0.051 mg/kg
therapeutical indices in words (rat, in vivo): more favorable therapeutical indices than any of the known substances with similar biological activities
ED50 (hot plate) [15]: 0.012 mg./kg.s.c.
Average jump per mouse [7, 17]: 0.9
Average jump per mouse [7, 19]: 3.8
Jumping mice/examined mice [7, 17]: 3/25
Jumping mice/examined mice [7, 19]: 14.25
ED50 ([8]; hot plate test): 0.0125 mg/kg
tolerance to the vasodepressor responses ([1]; in vivo): cross tolerance between morphine, codeine, azidomorphine and 14-hydroxyazidomorphine* was observed
blood pressure effect in words ([1]; in vivo, iv): greatest drop in blood pressure of all compounds tested
Blood pressure after drug ([1]; in vivo, iv, 0.035 mg/kg): 97 ± 4.5 mm Hg
ED50 ([2]; po): 10 mg/kg
ED50 [2, 11]: 0.021 mg/kg
anti-tussive activity in words ([2]; rat, in vivo): superior anti-tussive to those anti-tussives currently in use
Ratio codeine/drug (AtD50) ([2]; rat, in vivo, po): 10.00
potency as an anti-tussive relative to codeine ([2]; rat, in vivo, sc): 904 times
Ratio codeine/drug (AtD50) ([2]; rats, s.c.): 904.76
ED50 ([3]; iv): 0.012 mg/kg
ED100 ([3]; iv): 0.02 ± 0.002 mg/kg
Ratio codeine/drug (AtD50) ([3]; in vivo, iv): 120.83
Ratio codeine/drug (AtD100) ([3]; in vivo, iv): 253.50

CCC(=O)C(CC(C)N(C)C)(c1ccccc1)c1ccccc1 (centres unmarked) [Methadone]
ED50 (tail flick test) ([4]; rat, in vivo, sc): 1.6 s.c. mg./kg.
LD50 [5]: 28 mg/kg
ED50 [6]: 0.71 mg/kg
ED50 (hot plate) (rat, in vivo, sc): 1.9 mg./kg.s.c.

CN1CC[C@]23c4c5ccc(O)c4O[C@H]2[C@@H](O)C=C[C@H]3[C@H]1C5 [Morphine]
ED50 (tail flick test) ([4]; rat, in vivo, sc): 1.8 s.c. mg./kg.
ED50 [6]: 0.69 mg/kg
ED50 (hot plate) (rat, in vivo, sc): 4.7 mg./kg.s.c.
Average jump per mouse [7, 20]: 9.7
Average jump per mouse [7, 21]: 46.4
Average jump per mouse [7, 22]: 42.7
Average jump per mouse [7, 23]: 48.7
Jumping mice/examined mice [7, 20]: 20/25
Jumping mice/examined mice [7, 21]: 25/25
Jumping mice/examined mice [7, 22]: 25/25
Jumping mice/examined mice [7, 23]: 25/25
ED50 (analgesic) ([8]; i.p., hot plate test): 5 mg./kg. i.p.
Change in blood pressure ([1]; anesthetized cats, 1.03 mg/kg i.v.): 39 ± 2.1 mm Hg
Blood pressure after drug ([1]; anesthetized cats, 1.03 mg/kg i.v., means ± S.E.): 92 ± 1.0 mm Hg
blood pressure effect in words ([1]; anesthetized cats, i.v.): only morphine produced a biphasic hypotensive effect
ED50 ([3]; iv): 0.61 mg/kg
AtD100 [3, 13]: 1.28 ± 0.32 mg/kg i.v.

CC(C)=CCN1CCC2(C)c3cc(O)ccc3CC1C2C (centres unmarked) [Pentazocine]
ED50 (tail flick test) [4, 14]: 12 s.c. mg./kg.
LD50 [5]: 280 mg/kg
ED50 [6]: 8.1 mg/kg
ED50 (hot plate) [15]: 9.1 mg./kg.s.c.

CCOC(=O)C1(c2ccccc2)CCN(C)CC1 [Petidine]
ED50 (tail flick test) [4, 14]: 4.3 s.c. mg./kg.
LD50 [5]: 280 mg/kg
ED50 [6]: 3.3 mg/kg
ED50 (hot plate) [15]: 4.9 mg./kg.s.c.
